The text below walks through data of the RepoRT retention time repository (doi:10.1016/j.foodchem.2021.129757).

What all share (details): stereoisomer not certain
Series [1] is described as follows: Other, Phenomenex Kinetex PFP, 100 × 4.6 mm, 2.6 µm, 35 °C, 1.5 mL/min, estimated dead time 0.71 min; A: water + 0.1% trifluoroacetic acid, pH 2; B: acetonitrile + 0.1% trifluoroacetic acid, pH 2; gradient (min/%B) 0/1 7/7.5 14/7.6 17/10 18.5/12 20/12.5 24/30 25/90 25.1/1 32/1.
Series [2] is described as follows: RP, 150 × 2.1 mm, 2.6 µm, 40 °C, 0.35 mL/min, estimated dead time 0.94 min; A: water + 0.1% formic acid, pH 3; B: acetonitrile + 0.1% formic acid, pH 3; gradient (min/%B) 0/0 1/0 12.5/100 14/100 14.2/0 15/0.
Series [3] can be described thus: RP, 150 × 2.1 mm, 2.6 µm, 40 °C, 0.35 mL/min, estimated dead time 0.94 min; A: water + 0.1% formic acid, pH 3; B: acetonitrile + 0.1% formic acid, pH 3; gradient (min/%B) 0/0 1/5 7/45 8.5/80 10.5/80 11/5 12/5.
Series [4] in a line: RP, Agilent ZORBAX RRHD Eclipse Plus C18, 50 × 2.1 mm, 1.8 µm, 30 °C, 0.4 mL/min, estimated dead time 0.28 min; A: water + 0.1% formic acid, pH 3; B: acetonitrile + 0.1% formic acid, pH 3; gradient (min/%B) 0/1 5/10 8/25 9.1/99 10/99 12/1.
Series [5] in a line: RP, Phenomenex Synergi Hydro-RP, 250 × 2 mm, 4 µm, 25 °C, 0.2 mL/min, estimated dead time 2.5 min; A: water + 0.1% formic acid, pH 3; B: acetonitrile + 0.1% formic acid, pH 3; gradient (min/%B) 0/0.5 7/0.5 12/12.5 25/16.3 47/35 48/65 50/65 50.1/0.5.
Series [6] in a line: RP, Agilent ZORBAX Eclipse XDB-C18, 100 × 2.1 mm, 1.8 µm, 50 °C, 0.4 mL/min, estimated dead time 0.55 min; A: water + 0.1% formic acid, pH 3; B: methanol + 0.1% formic acid, pH 3; gradient (min/%B) 0/2 10/100 14.5/100 14.51/2 16.5/2.
A short description of series [7]: RP, Agilent InfinityLab Poroshell 120 EC-C18, 100 × 3 mm, 2.7 µm, 25 °C, 0.4 mL/min, estimated dead time 1.1 min; A: water + 0.1% formic acid, pH 3; B: acetonitrile + 0.1% formic acid, pH 3; gradient (min/%B) 0/5 10/25 20/40 24/90 25/90 26/5 30/5.
Series [8] can be described thus: RP, 100 × 0.5 mm, 2.7 µm, 45 °C, 0.015 mL/min, estimated dead time 0.83 min; A: water + 0.9% formic acid; B: acetonitrile + 0.9% formic acid; gradient (min/%B) 0/1 0.5/1 4/95 4.5/1 5/1.
Series [9] is described as follows: RP, Waters ACQUITY UPLC HSS T3, 100 × 2.1 mm, 1.8 µm, 30 °C, 0.4 mL/min, estimated dead time 0.55 min; A: water + 0.1% formic acid, pH 3; B: acetonitrile + 0.1% formic acid, pH 3; gradient (min/%B) 0/0 2/0 15/100 22/100 22.1/0 26/0.
Series [10] is described as follows: RP, Phenomenex Luna Omega Polar C18, 100 × 2.1 mm, 1.6 µm, 40 °C, 0.5 mL/min, estimated dead time 0.44 min; A: water + 0.1% formic acid + 10 mM ammonium formate; B: acetonitrile; gradient (min/%B) 0/5 8/20 10/100 12/100 12.1/5 14/5.
Series [11] is described as follows: RP, Waters ACQUITY UPLC BEH C18, 100 × 2.1 mm, 1.7 µm, 65 °C, 0.4 mL/min, estimated dead time 0.55 min; A: water + 0.1% formic acid, pH 3; B: 80% acetonitrile + 20% acetone + 0.1% formic acid, pH 3; gradient (min/%B) 0/0 5/100 5.5/0 6/0.
Series [12] in a line: RP, Waters ACQUITY UPLC BEH Shield RP18, 100 × 2.1 mm, 1.7 µm, 30 °C, 0.6 mL/min, estimated dead time 0.37 min; A: water + 0.1% formic acid, pH 3; B: acetonitrile + 0.1% formic acid, pH 3; gradient (min/%B) 0/0 2/0 7/10 22/95 22.1/0 26/0.
Series [13] can be described thus: RP, Phenomenex Luna C18, 150 × 4.6 mm, 3 µm, 25 °C, 0.5 mL/min, estimated dead time 3.2 min; A: water + 0.1% formic acid, pH 3; B: acetonitrile + 0.1% formic acid, pH 3; gradient (min/%B) 0/0 30/30 35/40 50/80 52/80 60/0 65/0.
A short description of series [14]: RP, Waters ACQUITY UPLC BEH Shield RP18, 150 × 2.1 mm, 1.7 µm, 40 °C, 0.4 mL/min, estimated dead time 0.83 min; A: water + 0.1% formic acid, pH 3; B: acetonitrile + 0.1% formic acid, pH 3; gradient (min/%B) 0/0 30/50 31/100 37/100 37.1/0.
Series [15] can be described thus: RP, Merck LiChrospher RP-18, 250 × 4 mm, 5 µm, 35 °C, 0.3 mL/min, estimated dead time 6.7 min; A: water + 0.5% formic acid; B: acetonitrile + 0.5% formic acid; gradient (min/%B) 0/5 10/5 30/15 45/20 65/20 95/54 110/63 115/5 135/5.
The nature of series [16]: RP, 50 × 0.5 mm, 2.7 µm, 35 °C, 0.01 mL/min, estimated dead time 0.62 min; A: water + 0.1% formic acid, pH 3; B: acetonitrile + 0.1% formic acid, pH 3; gradient (min/%B) 0/5 12/95 14/95 16/5.
The nature of series [17]: Other, Phenomenex Kinetex PFP, 100 × 4.6 mm, 5 µm, 45 °C, 0.6 mL/min, estimated dead time 1.8 min; A: water + 0.1% trifluoroacetic acid, pH 2; B: methanol; gradient (min/%B) 0/40 20/72 21/40.
Series [18] in a line: RP, Phenomenex Synergi Hydro-RP, 150 × 2 mm, 4 µm, 30 °C, 0.5 mL/min, estimated dead time 0.6 min; A: water + 0.1% formic acid, pH 3; B: acetonitrile + 0.1% formic acid, pH 3; gradient (min/%B) 0/5 1/5 35/45 40/100 45/100.
Series [19] in a line: RP, Merck Supelco SUPELCOSIL LC-C18, 250 × 4.6 mm, 5 µm, 40 °C, 1 mL/min, estimated dead time 2.6 min; A: water + 0.1% trifluoroacetic acid, pH 2; B: acetonitrile + 0.1% trifluoroacetic acid, pH 2; gradient (min/%B) 0/5 45/35 47/75 49/35 50/5.
Series [20] in a line: RP, Phenomenex Luna Omega Polar C18, 100 × 2.1 mm, 1.6 µm, 40 °C, 0.5 mL/min, estimated dead time 0.44 min; A: water + 0.5% formic acid; B: acetonitrile + 0.5% formic acid; gradient (min/%B) 0/5 3/50 3.1/100 5/100 5.1/5 7/5.
Series [21] can be described thus: RP, Waters Atlantis T3, 100 × 2.1 mm, 3 µm, 40 °C, 0.3 mL/min, estimated dead time 0.73 min; A: water + 0.1% trifluoroacetic acid, pH 2; B: acetonitrile + 0.1% trifluoroacetic acid, pH 2; gradient (min/%B) 0/10 1/10 6/40 7/50 8/50 14/70 16/80 20/10 25/10.
The nature of series [22]: RP, Agilent ZORBAX RRHD Eclipse Plus C18, 50 × 2.1 mm, 1.8 µm, 30 °C, 0.4 mL/min, estimated dead time 0.28 min; A: water + 0.1% formic acid, pH 3; B: acetonitrile + 0.1% formic acid, pH 3; gradient (min/%B) 0/1 5/10 8/25 9.1/99 10/99 12/99.

Turning to `Cc1ccc(C(=O)NCC(=O)O)cc1` [4-methylhippuric acid], the LC retention time in series [1] is 14.5 min.
As for `O=c1ccc2ccc(O)c(O)c2o1` [7,8-Dihydroxycoumarin], the LC retention time in series [2] was 4.84 min; in [3] it was 4.64 min; in [1], 12 min; in [4], 6.14 min.
Take `O=Cc1c(O)cc(O)cc1O` [Phloroglucinol aldehyde]: the LC retention time in series [5] was 27.6 min; in series [1] it was 18.5 min.
Regarding `COC(=O)c1cc(O)c(O)c(O)c1` [Methyl 3,4,5-trihydroxybenzoate], in series [1], the LC retention time is 8.64 min.
Turning to `COc1ccc(C(=O)O)cc1` [p-anisic acid], the LC retention time is 39.1 min in series [5] and 20.6 min in series [1].
With `O=Cc1ccc(O)cc1O` [2,4-dihydroxybenzaldehyde], the LC retention time in series [1] is 14.7 min.
Regarding `COC(=O)c1ccc(O)c(OC)c1` [Methyl vanillate], the LC retention time was 5.37 min in series [6] and 23 min in series [1].
Regarding `Oc1ccc(C=Cc2cc(O)cc(O)c2)cc1` [Resveratrol], the LC retention time in [7] is 14.7 min; in series [8], 2.88 min; in series [9], 10.4 min; in [10], 9.3 min; in series [11], 2.48 min; in series [12], 14.7 min. Moreover, the LC retention time was 38.8 min in series [13]; 17.9 min in [14]; 5.24 min in series [6]; 85.7 min in series [15]; 5.18 min in series [16]; 10.8 min in series [17]. The values for the LC retention time in [18], in series [19] and in series [20] were 20 min, 31.6 min and 2.96 min, respectively.
For `Oc1cc(O)c2cc(O)c(-c3ccc(O)c(O)c3)[o+]c2c1` [Cyanidin], the LC retention time is 5.63 min in [7]; 3.19 min in [8]; 3.52 min in [6]; 10.8 min in series [17]; 29.1 min in series [19]; 3.17 min in series [20].
As to `O=C(C=Cc1ccc(O)c(O)c1)OC(Cc1ccc(O)c(O)c1)C(=O)O` (stereo unspecified) [Rosmarinic acid], the LC retention time was 11.5 min in [7]; 2.28 min in series [8]; 9.87 min in series [9]; 8.46 min in series [10]; 13.7 min in series [12]; 30 min in [13]. For the same compound, the LC retention time was 14.6 min in [14]; 39.2 min in series [5]; 5.41 min in series [6]; 79.8 min in series [15]; 4.8 min in series [16]; 9.57 min in series [17]. Moreover, the values for the LC retention time in series [18], in series [19] and in [21] were 18.4 min, 31 min and 8.18 min, respectively.
On to `O=C(O)c1c(O)cc(O)cc1O` [2,4,6-trihydroxybenzoic acid], for which the LC retention time in [5] was 15.9 min; in series [1] it was 9.72 min.
On to `COc1cccc(O)c1C(=O)O` [6-Methoxysalicyclic acid], for which, in series [1], the LC retention time was 22.1 min.
In the case of `O=C(O)c1cc(O)cc(O)c1` [3,5-Dihydroxybenzoic acid], the LC retention time in series [1] was 4.93 min; in series [4] it was 4.25 min; in [22] it was 2.82 min.
For `Cc1cccc(C(=O)NCC(=O)O)c1` [3-methylhippuric acid], in [1], the LC retention time was 14.8 min.
The same measure, in the same setting: the same measure for `COC(=O)c1ccc(O)c(O)c1` [Methyl 3,4-dihydroxybenzoate]: 15.3 min.
With `COc1cc2ccc(=O)oc2cc1O` [Scopoletin], the results for the LC retention time in series [2], in series [3] and in series [1] were 5.86 min, 5.8 min and 20.4 min, respectively.
For the compound `O=C(O)CC(=O)O` [Malonic acid], the LC retention time in series [1] was 1.52 min.
